Measurements reported in article PMC12610573, “New Chlormequat-Based Ionic Liquids as Plant Resistance Inducers” (Molecules, 2025).

What was measured:
[1] = test system: radish (Raphanus sativus) sprouts; assay: Phytotoxicity test on radish sprouts; type: in vivo; conditions: for Reduction in Sprout Mass: compared with untreated control; for Mass of 25 Sprouts: radish, 5 days, UTC 3.09 g
Protocol: Twenty five seeds of radish (Raphanus sativus) were placed on a filter tissue in a Petri dish. […] Then, sprouts were weighted. All variants of treatment were tested together, with 3 replications (plates) in each of 2 cycles performed. Results were subjected to statistical analysis as described in Section 4.8.
(§1) Statistical significance of the effect of the treatments of plants with tested compounds on the phytotoxicity and SAR induction was assessed with the ANOVA test performed using the Statistica program StatSoft with software version 9.1 (StatSoft Sp. z o.o., Kraków, Poland). The statistical assumptions of normality and homogeneity of variances were verified prior to conducting the ANOVA tests. Differences between the means were estimated with Tukey’s HSD test at the significance level of p = 0.05.

[2] = test system: Tobamovirus tabaci (tobacco mosaic virus, TMV) on Nicotiana tabacum cv. Xanthi; assay: SAR induction assay: necrotic area after TMV inoculation of sprayed tobacco; type: in vivo; conditions: for SAR Induction (percentage of necrotic area on leaves): TMV inoculation after 7 days, read 7 days later, UTC 34.54; for Percentage of necrotic spot coverage (leaf shown in supplementary figure): single leaf image; for pest or weed control at 125 µg/mL / pest or weed control at 250 µg/mL: topical, read-out: Reduction in Necrotic Area; for pest or weed control at 125 µg/mL / pest or weed control at 250 µg/mL / Reduction in Necrotic Area: compared with untreated control plants
Protocol: Plants of Nicotiana tabacum cv. Xanthi were grown under greenhouse conditions at 25 °C and 50% relative humidity, under natural daylight during the May–August growing season, with a natural photoperiod. The plants were sprayed with solutions containing the tested compounds.
In all experiments, the TMV SL-1 isolate Tobamovirus (TMV) was used. To obtain a viral inoculum, Nicotiana tabacum cv. Samsun plants were sap-inoculated with previously virus-infected plant material. After the appearance of disease symptoms on the infected plants (leaf mosaic), the virus was isolated by sucrose density gradient centrifugation with 0.01 M Tris-HCl, pH 7.0, to prepare the infectious inoculum. The concentration of virus in the obtained preparation was determined spectrophotometrically. The samples of TMV were stored at −20 °C until use.
The tested active substances at a given concentration were sprayed on tobacco plants with three fully developed leaves. The volume of working solution used was equal to 10 mL per plant. The compounds were dissolved in a water/propylene glycol solution (95/5, v/v). The plants of the untreated control variant were sprayed with a water/propylene glycol solution (95/5, v/v) that was used for the preparation of solutions of the tested compounds. After seven days, the plants were mechanically inoculated using purified viral preparations (0.01 ng/mL as described in [34]).
The plants were inoculated with the TMV inoculum at a concentration of 3.8 × 10^−4 ng per leaf. For each variant of treatment, 3 plants were sprayed, and 3 leaves of each plant were analyzed. The entire experiment was performed in 2 replicates. Necrotic areas on the leaves were determined using ImageJ software.
The surface of a leaf or an area with necrotic spots is represented by a set of pixels in the image, which are counted by the program. Reduction in necrotic area (ISAR) is expressed by the following formula:(1) ISAR=100−(At/Ac∗100) where At is the ratio of the area of necrotic spots caused by viral infection that appeared on the leaf treated with the test substance to the whole area of the leaf; Ac is the ratio of the area of the necrotic spots caused by viral infection that appeared on the leaf of the control plant to the whole area of the leaf.
as §1

[3] = Thermogravimetric analysis (TGA), thermal stability; conditions: TGA under nitrogen, 10 °C/min; for Thermal Stability T5%onset: 5% weight loss onset; for Thermal Stability Tonset: decomposition onset
Protocol: TGA was performed on a TGA Q50 (Texas Instruments, Dallas, TX, USA) under nitrogen. Samples (5–10 mg) were heated from 25 °C to 500 °C at 10 °C/min with an isothermal step at 85 °C for 10 min. T5%onset and Tonset values were recorded.

[4] = Solubility tests in representative solvents (Vogel protocol); conditions: 25 °C; for solubility: thermodynamic from solid
Protocol: The solubilities of the prepared ILs in ten representative solvents were determined according to the protocols from Vogel’s Textbook of Practical Organic Chemistry. The solvents chosen for the study were arranged in order of descending value of their Snyder polarity index: water—9.0, methanol—6.6, acetone—5.1, isopropanol—4.3, toluene—2.3, and hexane—0.0.

What does the source list for O=C(O)c1cccc(Cl)c1O [3-chlorosalicylic acid]?
Reduction in Sprout Mass ([1]; 125 mg/L): 47.03%; Mass of 25 Sprouts ([1]; 125 mg/L): 1.64 a B g; Reduction in Sprout Mass ([1]; 250 mg/L): 72.65%; Mass of 25 Sprouts ([1]; 250 mg/L): 0.85 a A g; SAR Induction (percentage of necrotic area on leaves) ([2]; 125 mg/L spray): 4.95 a B %; Percentage of necrotic spot coverage (leaf shown in supplementary figure) ([2]; 125 mg/L): 2.62%; SAR Induction (percentage of necrotic area on leaves) ([2]; 250 mg/L spray): 2.59 a AB %; Percentage of necrotic spot coverage (leaf shown in supplementary figure) ([2]; 250 mg/L): 2.30%; pest or weed control at 125 µg/mL ([2]; 125 mg/L): 85.7%; pest or weed control at 250 µg/mL ([2]; 250 mg/L): 92.5%

For C[N+](C)(C)CCCl.O=C([O-])c1ccncc1 [[CC][IsoNic]], which “Reduction in Sprout Mass” value ([1]; 125 mg/L) is on record?
The value was 15.70%.

What about the “Mass of 25 Sprouts” value ([1]; 125 mg/L) of the same compound?
Its value is 2.60 fgh C.

What about the “Reduction in Sprout Mass” value ([1]; 250 mg/L) of the same compound?
The value was 35.65%.

What about the “Mass of 25 Sprouts” value ([1]; 250 mg/L) of the same compound?
Its value is 1.99 efg AB.

And the “SAR Induction (percentage of necrotic area on leaves)” value ([2]; 125 mg/L spray)?
The value was 24.51 ef A %.

What about the “Reduction in Necrotic Area” value ([2]; 125 mg/L) of the same compound?
The value was 29.0%.

And the “SAR Induction (percentage of necrotic area on leaves)” value ([2]; 250 mg/L spray)?
The value was 21.48 g A %.

And the “Reduction in Necrotic Area” value ([2]; 250 mg/L)?
The value was 37.8%.

What about the “Thermal Stability T5%onset” value [3] of the same compound?
The value was 164.3 °C.

And the “Thermal Stability Tonset” value [3]?
The value was 85.3 °C.

With O=C(O)c1ccc(Cl)cc1O [4-chlorosalicylic acid] as the compound, how does the “Reduction in Sprout Mass” value ([1]; 125 mg/L) read?
The value was 46.55%.

What about the “Mass of 25 Sprouts” value ([1]; 125 mg/L) of the same compound?
The value was 1.65 a B g.

And the “Reduction in Sprout Mass” value ([1]; 250 mg/L)?
The value was 68.45%.

What about the “Mass of 25 Sprouts” value ([1]; 250 mg/L) of the same compound?
Its value is 0.98 ab A g.

And the “SAR Induction (percentage of necrotic area on leaves)” value ([2]; 125 mg/L spray)?
The value was 17.06 cd C %.

What about the “SAR Induction (percentage of necrotic area on leaves)” value ([2]; 250 mg/L spray) of the same compound?
The value was 8.68 cde AB %.

What about the pest or weed control at 125 µg/mL ([2]; 125 mg/L) of the same compound?
The pest or weed control at 125 µg/mL was 50.6%.

What about the pest or weed control at 250 µg/mL ([2]; 250 mg/L) of the same compound?
The pest or weed control at 250 µg/mL was 74.9%.

Which “Solubility in Isopropanol” value [4] does the source give for C[N+](C)(C)CCCl [[CC][Cl], Chlormequat chloride, reference compound] here?
The value was “remained insoluble”.

What about the solubility ([4]; organic solvent or mixture, Solubility in Acetone, Snyder polarity index 5.1) of the same compound?
Its solubility is < 33.3 mg/mL.

What about the solubility ([4]; organic solvent or mixture, Solubility in Hexane, Snyder polarity index 0.0) of the same compound?
The solubility was < 33.3 mg/mL.

What about the solubility ([4]; organic solvent or mixture, Solubility in Isopropanol, Snyder polarity index 4.3) of the same compound?
Its solubility is < 33.3 mg/mL.

And the solubility ([4]; organic solvent or mixture, Solubility in Methanol, Snyder polarity index 6.6)?
The solubility was > 100 mg/mL.

And the solubility ([4]; organic solvent or mixture, Solubility in Toluene, Snyder polarity index 2.3)?
Its solubility is < 33.3 mg/mL.

And the solubility ([4]; water, Solubility in Water, Snyder polarity index 9.0)?
Its solubility is > 100 mg/mL.

What about the “Reduction in Sprout Mass” value ([1]; 125 mg/L) of the same compound?
Its value is 24.00%.

And the “Mass of 25 Sprouts” value ([1]; 125 mg/L)?
The value was 2.35 def B g.

What about the “Mass of 25 Sprouts” value ([1]; 250 mg/L) of the same compound?
The value was 2.08 fgh A.

What about the “Thermal Stability T5%onset” value [3] of the same compound?
The value was 255.0 °C.

What about the “Thermal Stability Tonset” value [3] of the same compound?
The value was 259.8 °C.

With O=C(O)c1cc(Cl)cc(Cl)c1O [3,5-dichlorosalicylic acid] as the compound, how does the “Reduction in Sprout Mass” value ([1]; 125 mg/L) read?
The value was 32.96%.

What about the “Mass of 25 Sprouts” value ([1]; 125 mg/L) of the same compound?
Its value is 2.07 bcd B g.

And the “Reduction in Sprout Mass” value ([1]; 250 mg/L)?
Its value is 59.49%.

What about the “Mass of 25 Sprouts” value ([1]; 250 mg/L) of the same compound?
The value was 1.25 cd A g.

What about the “SAR Induction (percentage of necrotic area on leaves)” value ([2]; 125 mg/L spray) of the same compound?
The value was 15.03 cd B %.

And the “SAR Induction (percentage of necrotic area on leaves)” value ([2]; 250 mg/L spray)?
Its value is 7.51 bcd A %.

What about the pest or weed control at 125 µg/mL ([2]; 125 mg/L) of the same compound?
The pest or weed control at 125 µg/mL was 56.5%.

And the pest or weed control at 250 µg/mL ([2]; 250 mg/L)?
Its pest or weed control at 250 µg/mL is 78.3%.

For O=C(O)c1ccncc1 [Isonicotinic acid], which “Reduction in Sprout Mass” value ([1]; 125 mg/L) is on record?
Its value is 29.07%.

And the “Mass of 25 Sprouts” value ([1]; 125 mg/L)?
The value was 2.19 cde B g.

And the “Reduction in Sprout Mass” value ([1]; 250 mg/L)?
Its value is 42.83%.

And the “Mass of 25 Sprouts” value ([1]; 250 mg/L)?
Its value is 1.77 e A g.

And the “SAR Induction (percentage of necrotic area on leaves)” value ([2]; 125 mg/L spray)?
The value was 31.12 gh B %.

What about the “SAR Induction (percentage of necrotic area on leaves)” value ([2]; 250 mg/L spray) of the same compound?
The value was 25.58 g A %.

And the pest or weed control at 125 µg/mL ([2]; 125 mg/L)?
Its pest or weed control at 125 µg/mL is 9.9%.

What about the pest or weed control at 250 µg/mL ([2]; 250 mg/L) of the same compound?
Its pest or weed control at 250 µg/mL is 26%.

Which “Reduction in Sprout Mass” value ([1]; 125 mg/L) does the source give for O=C(O)c1cc(Cl)ccc1O [5-chlorosalicylic acid] here?
The value was 37.16%.

What about the “Mass of 25 Sprouts” value ([1]; 125 mg/L) of the same compound?
Its value is 1.94 abc B g.

And the “Reduction in Sprout Mass” value ([1]; 250 mg/L)?
Its value is 59.87%.

What about the “Mass of 25 Sprouts” value ([1]; 250 mg/L) of the same compound?
Its value is 1.24 cd A g.

And the “SAR Induction (percentage of necrotic area on leaves)” value ([2]; 125 mg/L spray)?
The value was 4.23 a B %.

And the “Percentage of necrotic spot coverage (leaf shown in supplementary figure)” value ([2]; 125 mg/L)?
The value was 2.98%.

What about the “SAR Induction (percentage of necrotic area on leaves)” value ([2]; 250 mg/L spray) of the same compound?
The value was 3.28 ab AB %.

And the “Percentage of necrotic spot coverage (leaf shown in supplementary figure)” value ([2]; 250 mg/L)?
Its value is 1.28%.

What about the pest or weed control at 125 µg/mL ([2]; 125 mg/L) of the same compound?
The pest or weed control at 125 µg/mL was 87.8%.

And the pest or weed control at 250 µg/mL ([2]; 250 mg/L)?
Its pest or weed control at 250 µg/mL is 90.5%.
